Experimental data: patent publication US8980919B2, “Combination of a carbostyril and carnitine” (Otsuka Pharmaceutical Co., Ltd., priority 2008, dated 2015)

System: chronic cerebral ischemia model rats
Experiment: Immunohistological evaluation of brain in chronic cerebral ischemia model rats (ligation of both carotid arteries)
Format: in vivo, rat
Settings: for number of GST-pi positive oligodendrocyte in the callosum: after LBCCA, L-carnitine 600 mg/kg/day, cilostazol 50 mg/kg/day, FIG. 2; for number of GST-pi positive oligodendrocyte in the callosum / 8-OHdG positive cell (cell dysfunction by peroxidation): vs vehicle; for 8-OHdG positive cell (cell dysfunction by peroxidation): day 7 to day 28 after LBCCA, FIG. 3; for 8-OHdG positive cell (cell dysfunction by peroxidation) / number of ss-DNA positive cells (marker of apoptosis) / HNE staining positive cells (peroxidative metabolism): P<0.01; for number of ss-DNA positive cells (marker of apoptosis) / HNE staining positive cells (peroxidative metabolism): vs vehicle group; for number of ss-DNA positive cells (marker of apoptosis): FIG. 5; for HNE staining positive cells (peroxidative metabolism): FIG. 4
Protocol: The cerebroprotective action of cilostazol for inflammatory reaction due to oxidative stress and glial cell was studied using chronic cerebral ischemia model rats as cerebrovascular dementia model animals. Using Wister rats (male, aged 7-8 weeks, body weights of 150-200 g), chronic cerebral ischemia model rats are prepared according to the method of […] et al. (Acta Neuropathol (Berl). 87, 484-492, 1993), i.e. by double-ligating both […] of the rats. As a physiological evaluation, body temperature and body fluid of the rats before/after the preparation are measured, and the cerebral blood flow thereof is analyzed with a Doppler device. To the rats of each administration group of vehicle, L-carnitine, cilostazol, and L-carnitine/cilostazol combination, each defined administration is done every day by natural ingestion from the day when the preparation of ischemia was completed to the final day for the experimental evaluation. […] After brain parenchyma of the rats is sliced in 20 μm, HE and KB stainings and several immunostainings are carried out. The dosage of each trial is 600 mg/kg/day for L-carnitine and 50 mg/kg/day for cilostazol. Regarding glial cell, the astrocyte is evaluated with an antibody for GFAP, the microglia is evaluated with an antibody for Iba-1, and the oligodendrocyte is evaluated with an antibody for glutathione S-transferase p^+ (GST-pi). And, the oxidative stress is evaluated with an antibody for anti 4-hydroxy-2-nonenal (HNE).

SMILES | number of GST-pi positive oligodendrocyte in the callosum | 8-OHdG positive cell (cell dysfunction by peroxidation) | number of ss-DNA positive cells (marker of apoptosis) (day 14) | HNE staining positive cells (peroxidative metabolism) | number of ss-DNA positive cells (marker of apoptosis) (days 14, 21 and 28)
C[N+](C)(C)C[C@H](O)CC(=O)[O-] [carnitine, L-carnitine] | increased more than that of the vehicle group | significantly decreased | significantly decreased compared with the vehicle group | tended to significantly decrease compared with the vehicle group | 
O=C1CCc2cc(OCCCCc3nnnn3C3CCCCC3)ccc2N1 [cilostazol, 6-[4-(1-cyclohexyl-1H-tetrazol-5-yl)butoxy]-3,4-dihydrocarbostyril] | increased more than that of the vehicle group | significantly decreased |  | tended to significantly decrease compared with the vehicle group | significantly decreased compared with the vehicle group
